Measurements as given in patent publication US20140213513A1 (Sanofi, priority 2012, published 2014).
Values after ≈ are worked out from the molar mass of the structure shown. Where two headings read alike, the source gives them in different places. *1 amine or outer side, *2 acyl side, *3 side chain or, on linkers, in order; H or OH if unused. Where a SMILES comes first, the peptide text is derived from it. Side-chain parts run from the residue outwards. [ ]: non-standard residue; d: D form. The star is where a group is joined. γGlu = O=C(O)[C@H](CCC(=O)[*:2])N[*:1]; Stearoyl = CCCCCCCCCCCCCCCCCC(=O)*; Palmitoyl = CCCCCCCCCCCCCCCC(=O)*; Aib = CC(C)(N)C(=O)O

How the values were obtained:
[1] = target: T1, human GLP-1 receptor (hGLP-1 R) (Homo sapiens, UniProt P43220); test: cAMP response of HEK-293 cells stably expressing human GLP-1 receptor (HTRF); assay type: cell-based; conditions: Table 7; cAMP formation
T1 construct: expressed in transfected cells
T1 sequence (P43220 24-463): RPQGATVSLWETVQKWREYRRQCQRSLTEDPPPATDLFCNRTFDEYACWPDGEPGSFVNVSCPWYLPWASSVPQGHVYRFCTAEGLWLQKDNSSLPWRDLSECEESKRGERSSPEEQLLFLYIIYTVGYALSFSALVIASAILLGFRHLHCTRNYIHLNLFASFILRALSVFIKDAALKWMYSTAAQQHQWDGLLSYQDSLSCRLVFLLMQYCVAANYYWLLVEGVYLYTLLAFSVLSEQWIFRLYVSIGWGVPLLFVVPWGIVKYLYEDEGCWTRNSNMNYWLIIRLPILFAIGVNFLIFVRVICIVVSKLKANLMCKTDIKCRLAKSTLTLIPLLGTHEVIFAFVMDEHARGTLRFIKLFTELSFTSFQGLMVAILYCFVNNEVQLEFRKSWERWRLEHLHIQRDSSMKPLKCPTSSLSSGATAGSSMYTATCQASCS
Outline: (§1)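 cAMP accumulation was read by homogeneous time-resolved fluorescence after 30 min compound exposure at room temperature. Stable receptor-expressing HEK-293 cells, 400000 cells/ml, were used in HEPES-buffered HBSS containing 0.1% BSA and the phosphodiesterase inhibitor IBMX (2 mM).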

[2] = Solubility testing in buffer (HPLC-UV of supernatant); assay type: physicochemical
[3] = target: T2, human GIP receptor (hGIP R) (Homo sapiens, UniProt P48546); test: cAMP response of HEK-293 cells stably expressing human GIP receptor (HTRF); assay type: cell-based; conditions: Table 7; cAMP formation
T2 construct: expressed in transfected cells
T2 sequence (P48546 22-466): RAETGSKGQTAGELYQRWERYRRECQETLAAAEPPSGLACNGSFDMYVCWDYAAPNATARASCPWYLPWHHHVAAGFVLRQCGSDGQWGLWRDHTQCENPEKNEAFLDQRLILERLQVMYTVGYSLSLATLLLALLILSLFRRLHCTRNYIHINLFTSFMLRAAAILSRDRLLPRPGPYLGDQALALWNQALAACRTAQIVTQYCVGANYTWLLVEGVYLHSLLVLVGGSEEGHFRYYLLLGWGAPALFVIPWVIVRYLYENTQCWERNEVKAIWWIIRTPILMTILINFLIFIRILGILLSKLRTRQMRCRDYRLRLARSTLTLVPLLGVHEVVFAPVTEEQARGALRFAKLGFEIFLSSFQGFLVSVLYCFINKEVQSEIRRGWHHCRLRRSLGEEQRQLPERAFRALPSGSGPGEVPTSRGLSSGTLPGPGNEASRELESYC
Outline: as §1

[4] = target: T3, human glucagon receptor (hGLUC R) (Homo sapiens, UniProt P47871); test: cAMP response of HEK-293 cells stably expressing human glucagon receptor (HTRF); assay type: cell-based; conditions: Table 7; cAMP formation
T3 construct: expressed in transfected cells
T3 sequence (P47871 26-477): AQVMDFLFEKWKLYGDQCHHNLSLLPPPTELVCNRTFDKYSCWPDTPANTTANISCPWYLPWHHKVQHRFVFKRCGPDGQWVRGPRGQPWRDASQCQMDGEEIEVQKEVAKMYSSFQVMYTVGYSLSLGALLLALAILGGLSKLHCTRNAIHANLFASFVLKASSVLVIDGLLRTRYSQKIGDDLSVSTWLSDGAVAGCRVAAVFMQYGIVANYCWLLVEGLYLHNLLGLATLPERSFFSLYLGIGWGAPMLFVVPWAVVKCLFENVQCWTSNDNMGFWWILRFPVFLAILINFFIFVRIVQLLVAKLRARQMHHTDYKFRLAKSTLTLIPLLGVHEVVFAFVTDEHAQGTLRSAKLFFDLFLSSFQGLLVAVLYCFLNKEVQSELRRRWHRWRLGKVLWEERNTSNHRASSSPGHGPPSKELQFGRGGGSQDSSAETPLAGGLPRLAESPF
Outline: as §1

## CCCCCCCCCCCCCCCCCC(=O)N[C@@H](CCC(=O)NCCCC[C@H](NC(=O)[C@H](CCC(N)=O)NC(=O)[C@@H](NC(=O)[C@H](CO)NC(=O)[C@H](CC(C)C)NC(=O)[C@H](CC(=O)O)NC(=O)[C@H](CO)NC(=O)[C@@H](NC(=O)[C@H](Cc1ccccc1)NC(=O)[C@@H](NC(=O)CNC(=O)[C@H](Cc1c[nH]cn1)NC(=O)C(C)(C)NC(=O)[C@@H](N)Cc1ccc(O)cc1)[C@@H](C)O)[C@@H](C)O)[C@@H](C)CC)C(=O)N[C@@H](CCC(=O)O)C(=O)N[C@@H](CCCCN)C(=O)N[C@@H](CCCNC(=N)N)C(=O)N[C@@H](C)C(=O)N[C@@H](C)C(=O)NC(C)(C)C(=O)N[C@@H](CCC(=O)O)C(=O)N[C@@H](Cc1ccccc1)C(=O)N[C@H](C(=O)N[C@@H](CCC(=O)O)C(=O)N[C@@H](Cc1c[nH]c2ccccc12)C(=O)N[C@@H](CC(C)C)C(=O)N[C@@H](CCCCN)C(=O)N[C@@H](CC(N)=O)C(=O)N[C@H](C(=O)NCC(=O)N1CCC[C@H]1C(=O)N[C@@H](CO)C(=O)N[C@@H](CO)C(=O)NCC(=O)N[C@@H](C)C(=O)N1CCC[C@H]1C(=O)N1CCC[C@H]1C(=O)N1CCC[C@H]1C(=O)N[C@@H](CO)C(N)=O)[C@@H](C)O)[C@@H](C)CC)C(=O)O [SEQ ID NO: 18, Y-Aib-H-G-T-F-T-S-D-L-S-I-Q-K(yE-x70)-E-K-R-A-A-Aib-E-F-I-E-W-L-K-N-T-G-P-S-S-G-A-P-P-P-S-NH2] (H-Y[Aib]HGTFTSDLSIQK([γGlu-Stearoyl])EKRAA[Aib]EFIEWLKNTGPSSGAPPPS-NH2)
[1]
  EC50: 0.0183 nM
[2]; pH 4.5, target concentration 1.0 mg/mL, read-out: Solubility (pH 4.5)
  solubility at 2 h: 966 µg/mL (≈ 209 µM)
[2]; pH 7.4, target concentration 1.0 mg/mL, read-out: Solubility (pH 7.4)
  solubility at 2 h: 768 µg/mL (≈ 166 µM)
[3]
  EC50: 0.0095 nM
[4]
  EC50: 0.0095 nM

## CCCCCCCCCCCCCCCC(=O)N[C@@H](CCC(=O)NCCCC[C@H](NC(=O)[C@H](CCC(N)=O)NC(=O)[C@@H](NC(=O)[C@H](CO)NC(=O)[C@H](CC(C)C)NC(=O)[C@H](CC(=O)O)NC(=O)[C@H](CO)NC(=O)[C@@H](NC(=O)[C@H](Cc1ccccc1)NC(=O)[C@@H](NC(=O)CNC(=O)[C@H](CCC(N)=O)NC(=O)C(C)(C)NC(=O)[C@@H](N)Cc1ccc(O)cc1)[C@@H](C)O)[C@@H](C)O)[C@@H](C)CC)C(=O)N[C@@H](CC(=O)O)C(=O)N[C@@H](CO)C(=O)N[C@H](C(=O)N[C@@H](C)C(=O)N[C@@H](C)C(=O)N[C@@H](CCC(N)=O)C(=O)N[C@@H](CC(=O)O)C(=O)N[C@@H](Cc1ccccc1)C(=O)N[C@H](C(=O)N[C@@H](CCC(=O)O)C(=O)N[C@@H](Cc1c[nH]c2ccccc12)C(=O)N[C@@H](CC(C)C)C(=O)N[C@@H](CCCCN)C(=O)N[C@@H](C)C(=O)NCC(=O)NCC(=O)N1CCC[C@H]1C(=O)N[C@@H](CO)C(=O)N[C@@H](CO)C(=O)NCC(=O)N[C@@H](C)C(=O)N1CCC[C@H]1C(=O)N1CCC[C@H]1C(=O)N1CCC[C@H]1C(=O)N[C@@H](CO)C(N)=O)[C@@H](C)CC)[C@@H](C)CC)C(=O)O [SEQ ID NO: 49, Y-Aib-Q-G-T-F-T-S-D-L-S-I-Q-K(yE-x53)-DSIAAQDFIEWLKAGGPSSGAPPPS-NH2] (H-Y[Aib]QGTFTSDLSIQK([γGlu-Palmitoyl])DSIAAQDFIEWLKAGGPSSGAPPPS-NH2)
[1]
  EC50: 0.0172 nM
[3]
  EC50: 0.0456 nM
[4]
  EC50: 0.195 nM

## CCCCCCCCCCCCCCCC(=O)N[C@@H](CCC(=O)NCCCC[C@H](NC(=O)[C@H](CCC(N)=O)NC(=O)[C@@H](NC(=O)[C@H](CO)NC(=O)[C@H](CC(C)C)NC(=O)[C@H](CC(=O)O)NC(=O)[C@H](CO)NC(=O)[C@@H](NC(=O)[C@H](Cc1ccccc1)NC(=O)[C@@H](NC(=O)CNC(=O)[C@H](CCC(N)=O)NC(=O)C(C)(C)NC(=O)[C@@H](N)Cc1ccc(O)cc1)[C@@H](C)O)[C@@H](C)O)[C@@H](C)CC)C(=O)N[C@@H](CCC(=O)O)C(=O)N[C@@H](CCCCN)C(=O)N[C@@H](CCCNC(=N)N)C(=O)N[C@@H](C)C(=O)N[C@H](C(=O)NC(C)(C)C(=O)N[C@@H](CCC(=O)O)C(=O)N[C@@H](Cc1ccccc1)C(=O)N[C@H](C(=O)N[C@@H](CCC(=O)O)C(=O)N[C@@H](Cc1c[nH]c2ccccc12)C(=O)N[C@@H](CC(C)C)C(=O)N[C@@H](CCCCN)C(=O)N[C@@H](C)C(=O)NCC(=O)NCC(=O)N1CCC[C@H]1C(=O)N[C@@H](CO)C(=O)N[C@@H](CO)C(=O)NCC(=O)N[C@@H](C)C(=O)N1CCC[C@H]1C(=O)N1CCC[C@H]1C(=O)N1CCC[C@H]1C(=O)N[C@@H](CO)C(N)=O)[C@@H](C)CC)C(C)C)C(=O)O [SEQ ID NO: 26, Y-Aib-Q-G-T-F-T-S-D-L-S-I-Q-K(yE-x53)-E-K-R-A-V-Aib-E-F-I-E-W-L-K-A-G-G-P-S-S-G-A-P-P-P-S-NH2] (H-Y[Aib]QGTFTSDLSIQK([γGlu-Palmitoyl])EKRAV[Aib]EFIEWLKAGGPSSGAPPPS-NH2)
[1]
  EC50: 0.0176 nM
[3]
  EC50: 0.0053 nM
[4]
  EC50: 0.3 nM

## CCCCCCCCCCCCCCCC(=O)N[C@@H](CCC(=O)NCCCC[C@H](NC(=O)[C@H](CCC(N)=O)NC(=O)[C@@H](NC(=O)[C@H](CO)NC(=O)[C@H](CC(C)C)NC(=O)[C@H](CC(=O)O)NC(=O)[C@H](CO)NC(=O)[C@@H](NC(=O)[C@H](Cc1ccccc1)NC(=O)[C@@H](NC(=O)CNC(=O)[C@H](CCC(=O)O)NC(=O)C(C)(C)NC(=O)[C@@H](N)Cc1ccc(O)cc1)[C@@H](C)O)[C@@H](C)O)[C@@H](C)CC)C(=O)N[C@@H](CCC(=O)O)C(=O)N[C@@H](CCCCN)C(=O)N[C@@H](CCCNC(=N)N)C(=O)N[C@@H](C)C(=O)N[C@@H](C)C(=O)NC(C)(C)C(=O)N[C@@H](CCC(=O)O)C(=O)N[C@@H](Cc1ccccc1)C(=O)N[C@H](C(=O)N[C@@H](CCC(=O)O)C(=O)N[C@@H](Cc1c[nH]c2ccccc12)C(=O)N[C@@H](CC(C)C)C(=O)N[C@@H](CCCCN)C(=O)N[C@@H](CCCNC(=N)N)C(=O)N[C@@H](C)C(=O)NCC(=O)N1CCC[C@H]1C(=O)N[C@@H](CO)C(=O)N[C@@H](CO)C(=O)NCC(=O)N[C@@H](C)C(=O)N1CCC[C@H]1C(=O)N1CCC[C@H]1C(=O)N1CCC[C@H]1C(=O)N[C@@H](CO)C(N)=O)[C@@H](C)CC)C(=O)O [SEQ ID NO: 20, Y-Aib-E-G-T-F-T-S-D-L-S-I-Q-K(yE-x53)-E-K-R-A-A-Aib-E-F-I-E-W-L-K- R-A-G-P-S-S-G-A-P-P-P-S-NH2] (H-Y[Aib]EGTFTSDLSIQK([γGlu-Palmitoyl])EKRAA[Aib]EFIEWLKRAGPSSGAPPPS-NH2)
[1]
  EC50: 0.0082 nM
[3]
  EC50: 0.0163 nM
[4]
  EC50: 18.2 nM

## CCCCCCCCCCCCCCCC(=O)N[C@@H](CCC(=O)NCCCC[C@H](NC(=O)[C@H](CCC(N)=O)NC(=O)[C@@H](NC(=O)[C@H](CO)NC(=O)[C@H](CC(C)C)NC(=O)[C@H](CC(=O)O)NC(=O)[C@H](CO)NC(=O)[C@@H](NC(=O)[C@H](Cc1ccccc1)NC(=O)[C@@H](NC(=O)CNC(=O)[C@H](CCC(N)=O)NC(=O)C(C)(C)NC(=O)[C@@H](N)Cc1ccc(O)cc1)[C@@H](C)O)[C@@H](C)O)[C@@H](C)CC)C(=O)N[C@@H](CC(=O)O)C(=O)N[C@@H](CO)C(=O)N[C@@H](CCC(=O)O)C(=O)N[C@@H](C)C(=O)N[C@@H](C)C(=O)N[C@@H](CCC(N)=O)C(=O)N[C@@H](CC(=O)O)C(=O)N[C@@H](Cc1ccccc1)C(=O)N[C@H](C(=O)N[C@@H](CCC(=O)O)C(=O)N[C@@H](Cc1c[nH]c2ccccc12)C(=O)N[C@@H](CC(C)C)C(=O)N[C@@H](CCCCN)C(=O)N[C@@H](C)C(=O)NCC(=O)NCC(=O)N1CCC[C@H]1C(=O)N[C@@H](CO)C(=O)N[C@@H](CO)C(=O)NCC(=O)N[C@@H](C)C(=O)N1CCC[C@H]1C(=O)N1CCC[C@H]1C(=O)N1CCC[C@H]1C(=O)N[C@@H](CO)C(N)=O)[C@@H](C)CC)C(=O)O [SEQ ID NO: 48, Y-Aib-Q-G-T-F-T-S-D-L-S-I-Q-K(yE-x53)-DSEAAQDFIEWLKAGGPSSGAPPPS-NH2] (H-Y[Aib]QGTFTSDLSIQK([γGlu-Palmitoyl])DSEAAQDFIEWLKAGGPSSGAPPPS-NH2)
[1]
  EC50: 0.0101 nM
[3]
  EC50: 0.0158 nM
[4]
  EC50: 0.478 nM
